Consider three compounds from ChEMBL document CHEMBL1150400, “Lycoparins A-C, new alkaloids from Lycopodium casuarinoides inhibiting acetylcholinesterase” (Bioorg Med Chem, 2008).

The target in the assay is T1, Acetylcholinesterase (Bos taurus, UniProt P23795).
T1 sequence (P23795 whole entry): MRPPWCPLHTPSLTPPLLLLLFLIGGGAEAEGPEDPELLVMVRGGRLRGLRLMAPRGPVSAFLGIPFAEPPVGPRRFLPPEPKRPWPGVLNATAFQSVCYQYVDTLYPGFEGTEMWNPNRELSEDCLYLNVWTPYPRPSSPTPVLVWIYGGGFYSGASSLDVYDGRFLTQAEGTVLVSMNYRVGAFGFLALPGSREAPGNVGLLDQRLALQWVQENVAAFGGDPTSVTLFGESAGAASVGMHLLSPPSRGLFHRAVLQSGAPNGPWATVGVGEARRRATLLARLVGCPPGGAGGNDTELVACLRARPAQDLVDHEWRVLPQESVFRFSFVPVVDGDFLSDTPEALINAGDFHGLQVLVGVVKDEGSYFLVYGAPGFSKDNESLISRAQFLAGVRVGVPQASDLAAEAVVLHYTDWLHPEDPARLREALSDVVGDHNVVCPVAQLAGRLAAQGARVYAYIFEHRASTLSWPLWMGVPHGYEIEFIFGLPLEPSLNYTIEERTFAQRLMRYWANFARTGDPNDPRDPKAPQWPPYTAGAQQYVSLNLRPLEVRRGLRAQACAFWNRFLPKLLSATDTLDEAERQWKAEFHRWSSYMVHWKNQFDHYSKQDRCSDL
Description: Inhibition of acetylcholinesterase from bovine erythrocyte.
For `C=C[C@@H]1[C@H]2C=C(C(=O)O)C[C@]1(N(C)C)c1ccc(=O)[nH]c1C2` [LYCOPARIN A], the IC50 is above 200 µM. To `C=C[C@@H]1[C@H]2C=C(C(=O)O)C[C@]1(NC)c1ccc(=O)[nH]c1C2` [LYCOPARIN B] belongs above 200 µM; to `C=C[C@@H]1[C@H]2C=C(CO)C[C@]1(N)c1ccc(=O)[nH]c1C2` [LYCOPARIN C], 25 µM.

What is called IC50 is the concentration needed to halve the response being measured. Higher therefore signals lower potency.
